Source: publication PMC6925768, “Determination of Anlotinib, a Tyrosine Kinase Inhibitor, in Rat Plasma by UHPLC-MS/MS and Its Application to a Pharmacokinetic Study” (Journal of Analytical Methods in Chemistry, 2019)
Like-named read-outs stand apart in the source and are kept apart here. Blank lines part the entries; values can stand above or below the molecule they belong to.

Experiments:
[1] = test system: human tumor xenograft models; design: method as in PMID 27716285; conditions: especially colon, ovarian, liver, renal, glioma, non-small-cell lung; cited from earlier work
[2] = design: method as in PMID 29620050; conditions: reported literature, different dose; cited from earlier work
[3] = test system: refractory advanced non-small-cell lung cancer; design: method as in PMID 29438373; conditions: patients with refractory advanced non-small-cell lung cancer; cited from earlier work
[4] = Pharmacokinetic study in rats after single oral administration; format: in vivo, Sprague Dawley rats; conditions: 10 mg/kg
Experimental: Male Sprague Dawley rats weighing 250 ± 20 g were purchased from the Shanghai Laboratory Animal Co. (Shanghai, China). All experimental rats were housed in a standard cage with a humidity of 50 ± 20%, a constant temperature of 23–25°C, and a light/dark cycle condition for at least 7 days before the pharmacokinetic study. After 8 h fasting (animals had free access to water), the rats received a single oral administration with anlotinib at a dosage of 10 mg/kg. All animal experiments in present study were approved by the Institutional Animal Care and Use Committee of Wenzhou Medical University (Wenzhou, China).
Blood samples (150 μL) were collected from the tail vein before the dose and at 0.17, 0.75, 1, 1.5, 2, 3, 4, 5, 7, 9, 12, 24, and 48 h after the oral administration of anlotinib. These series of blood samples were transferred into 1.5 mL heparinized tubes. The rat blood samples were immediately centrifuged for 10 min at 5,000 rpm at 4°C, and then the separation of plasma was stored at −80°C until analysis. The noncompartmental statistical model was performed to calculate the pharmacokinetic parameters of anlotinib by Drug and Statistics 3.0 software.

[5] = Stability of stock solutions; format: physicochemical; conditions: stock solution in methanol; for Stability of stock solution, long-term test: 4°C for 2 weeks; for Stability of stock solution, short-term test: room temperature for 24 hours
Experimental: (§1) The stability of three concentrations (0.25, 5, 40 ng/mL) of QCs was analyzed under typical storage conditions: (1) rat plasma stored at room temperature for 12 hours (short-term stability); (2) rat plasma stored at −80°C for 30 days (long-term stability); and (3) under three freeze-thaw cycles from −80°C to room temperature. The stability of stock solution of anlotinib and IS was analyzed under room temperature for 24 hours as well as at 4°C for 2 weeks.

[6] = Stability of anlotinib in rat plasma under various storage conditions; format: in vitro ADME; conditions: n = 3; for Short-term stability, Mean / Short-term stability, RE: room temperature 12 hours; for Freeze/thaw stability, Mean / Freeze/thaw stability, RE: three freeze-thaw cycles −80°C to room temperature; for Long-term stability, Mean / Long-term stability, RE: −80°C 30 days
Experimental: as §1

[7] = test system: advanced non-small-cell lung cancer; design: method as in PMID 30098152; conditions: advanced non-small-cell lung cancer after second-line or further treatment; cited from earlier work
[8] = male, Sprague Dawley, rat plasma, n = 6
[9] = male, Sprague Dawley, rat, plasma, po, n = 6

AUC(0-inf) [4, 8]: 186 ± 49.2 ng·h/mL
CL/F [4, 8]: 942 mL/min/kg
MRT last ([4]; male, Sprague Dawley, rat plasma, n = 6, read-out: MRT(0-t)): 8.98 ± 1.45 h
MRT inf ([4]; male, Sprague Dawley, rat plasma, n = 6, read-out: MRT(0-∞)): 9.2 ± 1.21 h
half-life ([4]; male, Sprague Dawley, rat plasma, n = 6, read-out: t 1/2 z (converted)): 303 ± 37.2 min
Cmax [4, 9]: 24.2 ± 4.31 ng/mL
Tmax [4, 9]: 3.33 h
AUC0-t ([4]; male, Sprague Dawley, rat, plasma, po, n = 6, read-out: AUC0-t): 184 ± 49.8 ng·h/mL
AUC0-t ([4]; rat plasma, n = 6): 184.431 ± 49.827 ng·h/mL
C max ([4]; rat plasma, n = 6): 24.219 ± 4.311 ng/mL
T max ([4]; rat plasma, n = 6): 3.333 ± 0.816 h
V/F ([4]; rat plasma, n = 6): 406.029 ± 72.748 L/kg
Stability of stock solution, long-term test [5]: 95.96%
Stability of stock solution, short-term test [5]: 98.96%
Short-term stability, Mean ([6]; 0.25 ng/ml in rat plasma): 0.26 ng/mL
Short-term stability, RE ([6]; 0.25 ng/ml in rat plasma): 4.65%
Freeze/thaw stability, Mean ([6]; 0.25 ng/ml in rat plasma): 0.26 ng/mL
Freeze/thaw stability, RE ([6]; 0.25 ng/ml in rat plasma): 2.03%
Long-term stability, Mean ([6]; 0.25 ng/ml in rat plasma): 0.25 ng/mL
Long-term stability, RE ([6]; 0.25 ng/ml in rat plasma): −1.55%
Autosampler stability, Mean ([6]; 0.25 ng/ml): 0.24 ng/mL
Autosampler stability, RE ([6]; 0.25 ng/ml): −2.27%
Short-term stability, Mean ([6]; 5 ng/ml in rat plasma): 5.21 ng/mL
Short-term stability, RE ([6]; 5 ng/ml in rat plasma): 4.27%
Freeze/thaw stability, Mean ([6]; 5 ng/ml in rat plasma): 4.94 ng/mL
Freeze/thaw stability, RE ([6]; 5 ng/ml in rat plasma): −1.13%
Long-term stability, Mean ([6]; 5 ng/ml in rat plasma): 5.19 ng/mL
Long-term stability, RE ([6]; 5 ng/ml in rat plasma): 3.75%
Autosampler stability, Mean ([6]; 5 ng/ml): 5.14 ng/mL
Autosampler stability, RE ([6]; 5 ng/ml): 2.75%
Short-term stability, Mean ([6]; 40 ng/ml in rat plasma): 41.64 ng/mL
Short-term stability, RE ([6]; 40 ng/ml in rat plasma): 4.1%
Freeze/thaw stability, Mean ([6]; 40 ng/ml in rat plasma): 40.55 ng/mL
Freeze/thaw stability, RE ([6]; 40 ng/ml in rat plasma): 1.39%
Long-term stability, Mean ([6]; 40 ng/ml in rat plasma): 41.19 ng/mL
Long-term stability, RE ([6]; 40 ng/ml in rat plasma): 2.97%
Autosampler stability, Mean ([6]; 40 ng/ml): 41.14 ng/mL
Autosampler stability, RE ([6]; 40 ng/ml): 2.85%
SMILES: COc1cc2c(Oc3ccc4[nH]c(C)cc4c3F)ccnc2cc1OCC1(N)CC1 [anlotinib, Anlotinib]
Activity against human tumor xenograft models [1]: broad activity
t1/2 [2]: 5.7 ± 3.1 h
Progression-free survival versus placebo [3]: obvious progression-free survival (PFS) benefits
Toxicity tolerance [3]: good toxicity tolerance
Overall survival and progression-free survival [7]: improve overall survival (OS) and progression-free survival (PFS)

Stability of stock solution, long-term test [5]: 98.73%
Stability of stock solution, short-term test [5]: 99.35%
SMILES: Cc1ccc(NC(=O)c2ccc(CN3CCN(C)CC3)cc2)cc1Nc1nccc(-c2cccnc2)n1 [IS, Imatinib]
